≈ marks a conversion by molar mass, not a printed value. Non-standard residues stand in square brackets, D forms with d. Residues, ends and D or L forms follow the SMILES beside them. *: point of attachment. Dolaproine = CO[C@@H]([C@@H]1CCCN1)[C@@H](C)C(=O)O; Hexanoyl(6-maleimido) = O=C1C=CC(=O)N1CCCCCC(=O)*; Dil = CC[C@H](C)[C@H](NC)[C@@H](CC(=O)O)OC; NMeV = CN[C@H](C(=O)O)C(C)C
What was measured:
[1] = Tolerability (MTD) of conjugates in mice; format: in vivo, mouse; details: h1F6 conjugates; for tolerability at 100 mg/kg dose (in words): single dose 100 mg/kg
Protocol: The tolerability, measured as maximum tolerated dose (MTD), was determined in mice based on animals' weight loss after treatment. Animals were usually monitored for 14 days. A conjugate is considered to be tolerated at a determined dose if single iv treatment at such dose results in a transient weight loss of no more than 20% of initial body weight of animals and no other signs of toxicity are observed. […] AF-Met-(D)Lys and AF-Asn-(D)Lys conjugates were tolerated at doses as high as 100 mg/kg (FIG. 7). Corresponding conjugates of auristatins containing Methionine (AM) and Tryptophan (AW) at the C-terminal position of the drug were tolerated even better, up to 150 mg/kg (FIG. 8). […] Thus, the Auristatin-Dipeptide Drug Linkers provide ADCs with significant therapeutic window for therapeutic treatment (e.g., cancer).

HCT-116 (CD70−) = assay: Cytotoxicity of Auristatin-Peptide-h1F6 conjugates, CD70- control cell line; format: cell-based
Source text: (§1) The conjugates contain approximately 4 drugs per antibody.

UMRC-3 = assay: Cytotoxicity of Auristatin-Peptide-h1F6 conjugates, resazurin assay; format: cell-based
Source text: as §1

L428 [2] = assay: as above; format: cell-based; details: for IC50 L428: ~4 drugs/Ab
Source text: as §1

U251 = assay: as above; format: cell-based; details: Table 4, ~4 drugs/Ab
Source text: as §1

Caki-1 = assay: as above; format: cell-based
Source text: as §1

L428 [3] = assay: Cytotoxicity of Auristatin-Peptide-cAC10 conjugates on CD30+ cells; format: cell-based
Protocol: (§2) Following the procedure described in Example 57, Auristatin-Dipeptide-cAC10 antibody conjugates were evaluated on CD30+ positive cell lines, Karpas 299, L428 and L540cy. In addition, a control conjugate, cAC10-vc-PABC-MMAF, was used. […] The conjugates contain approximately 4 drugs per antibody.
(§3) Following the procedure described as Examples 57 and 58, the activities of Auristatin-Peptide-cAC10 conjugates were evaluated on CD30^+ cells, such as Karpas 299, L428, and L540cy. The activities of Auristatin-Peptide-hBU12 conjugates were evaluated on CD19^+ cells such as Ramos, SUDHL-4, and ARH-77. The activities of Auristatin-Peptide-anti-LIV-1 conjugates were evaluated on LIV-1 positive cell lines MCF-7 and SKOV-3. The activities of Auristatin-Peptide-BR96 conjugates were evaluated on Le^y positive cells H3396, RCA, and L2987. All conjugates contain approximately 4 drugs per antibody.

L540cy = assay: as above; format: cell-based, human
Protocol: as §2, §3

Karpas 299 = assay: as above; format: cell-based, human
Protocol: as §2, §3

LP-1 = assay: Cytotoxicity of Auristatin-Peptide-h1F6 conjugates, resazurin assay; format: cell-based, human
Source text: as §1

786-O = assay: as above; format: cell-based, human; details: for IC50 786-0: Table 4
Source text: as §1

Caki-2 = assay: as above; format: cell-based; details: Table 5; h1F6 conjugates, ~4 drugs/Ab
Protocol: as §1
Following the procedure described as Examples 57 and 58, Auristatin-Peptide-h1F6 conjugates were evaluated on CD70^+ cell, such as 786-O, Caki-1, Caki-2, and L428. Conjugates contain approximately 4 drugs per antibody.

ARH-77 = assay: Cytotoxicity of Auristatin-Peptide-hBU12 conjugates on CD19+ cells; format: cell-based; details: Table 11, ~4 drugs per antibody
Protocol: as §3

Ramos = assay: as above; format: cell-based; details: Table 11, ~4 drugs per antibody
Protocol: as §3

SUDHL-4 = assay: as above; format: cell-based; details: Table 11, ~4 drugs per antibody
Protocol: as §3

MCF-7 = assay: Cytotoxicity of Auristatin-Peptide-anti-LIV-1 conjugates on LIV-1 positive cells; format: cell-based; details: Table 11, ~4 drugs per antibody
Protocol: as §3

SKOV-3 = assay: as above; format: cell-based; details: Table 11, ~4 drugs per antibody
Protocol: as §3

H3396 = assay: Cytotoxicity of Auristatin-Peptide-BR96 conjugates on Le^y positive cells; format: cell-based; details: Table 11, ~4 drugs per antibody
Protocol: as §3

RCA = assay: as above; format: cell-based; details: Table 11, ~4 drugs per antibody
Protocol: as §3

L2987 = assay: as above; format: cell-based; details: Table 11, ~4 drugs per antibody
Protocol: as §3

[4] = Table 4, h1F6 conjugates, ~4 drugs/Ab
[5] = Table 7, h1F6 conjugates, AF vs MMAF
[6] = Table 8, h1F6 conjugates, D vs L amino acid in second linker position
[7] = Table 9, h1F6-Drug(4) conjugates, mono- vs dipeptide linker
[8] = Table 5, h1F6 conjugates, ~4 drugs/Ab
[9] = Table 11, ~4 drugs per antibody

Row | Compound | IC50 HCT-116 (CD70−) (HCT-116 (CD70−); Table 4, ~4 drugs/Ab) [ng/mL] | IC50 UMRC-3 (UMRC-3; [4]) [ng/mL] | IC50 L428 (L428 [2]; Table 4, h1F6 conjugates) [ng/mL] | IC50 U251 (U251) [ng/mL] | IC50 Caki-1 (Caki-1; [4]) [ng/mL] | IC50 L428 (L428 [3]; Table 6, ~4 drugs/Ab) [ng/mL] | IC50 L540cy (L540cy; Table 6, ~4 drugs/Ab) [ng/mL] | IC50 Karpas 299 (Karpas 299; Table 6, ~4 drugs/Ab) [ng/mL] | IC50 LP-1 (LP-1; [4]) | IC50 786-0 (786-O; h1F6 conjugates, ~4 drugs/Ab) [ng/mL] | also measured
1 | AF-Asparagine-(D)Lysine-diaminoethane-propionyl maleimide [AF-Asn-(D)Lys] | >1000 | 28 | 24 | 60 | 10 | 0.1 | 4 | 44 | 417 ng/mL | 19 | tolerability at 100 mg/kg dose (in words) [1]: tolerated; IC50 UMRC-3 (UMRC-3; [5]): 32 ng/mL; IC50 UMRC-3 (UMRC-3; [6]): 32 ng/mL; IC50 UMRC-3 (UMRC-3; [7]): 32 ng/mL; IC50 L-428 (L428 [2]; [5]): 9 ng/mL; IC50 L-428 (L428 [2]; [6]): 9 ng/mL; IC50 L-428 (L428 [2]; [7]): 9 ng/mL; IC50 Caki-1 (Caki-1; [5]): 6 ng/mL; IC50 Caki-1 (Caki-1; [6]): 6 ng/mL; IC50 Caki-1 (Caki-1; [7]): 6 ng/mL; IC50 LP-1 (LP-1; [5]): 479 ng/mL; IC50 LP-1 (LP-1; [6]): 479 ng/mL; IC50 LP-1 (LP-1; [7]): 479 ng/mL; IC50 786-O (786-O; [5]): 10 ng/mL; IC50 786-O (786-O; [6]): 10 ng/mL; IC50 786-O (786-O; [7]): 10 ng/mL
2 | AF-Methionine-(D)Lysine-diaminoethane-propionyl maleimide [AF-Met-(D)Lys] | >1000 | 132 | 1698 | 98 | 25 | 1.5 | 3 | 2 | >10,000 ng/mL | 55 | IC50 UMRC-3 (UMRC-3; [5]): 182 ng/mL; IC50 UMRC-3 (UMRC-3; [6]): 182 ng/mL; IC50 UMRC-3 (UMRC-3; [7]): 182 ng/mL; IC50 L-428 (L428 [2]; [5]): 158 ng/mL; IC50 L-428 (L428 [2]; [6]): 158 ng/mL; IC50 L-428 (L428 [2]; [7]): 158 ng/mL; IC50 Caki-1 (Caki-1; [5]): 9 ng/mL; IC50 Caki-1 (Caki-1; [6]): 9 ng/mL; IC50 Caki-1 (Caki-1; [7]): 9 ng/mL; IC50 LP-1 (LP-1; [5]): >1000 ng/mL; IC50 LP-1 (LP-1; [6]): >1000 ng/mL; IC50 LP-1 (LP-1; [7]): >1000 ng/mL; IC50 786-O (786-O; [5]): 12 ng/mL; IC50 786-O (786-O; [6]): 12 ng/mL; IC50 786-O (786-O; [7]): 12 ng/mL
3 | MMAF-Asparagine-(D)Lysine-diaminoethane-propionyl maleimide [MMAF-Asn-(D)Lys] | – | – | – | – | – | – | – | – | – | – | tolerability at 100 mg/kg dose (in words) [1]: animal loss; IC50 UMRC-3 (UMRC-3; [5]): 19 ng/mL; IC50 L-428 (L428 [2]; [5]): 7 ng/mL; IC50 Caki-1 (Caki-1; [5]): 7 ng/mL; IC50 LP-1 (LP-1; [5]): 110 ng/mL; IC50 786-O (786-O; [5]): 9 ng/mL
4 | AF-Asparagine-diaminoethane-propionyl maleimide [AF-Asn] | – | – | – | – | – | – | – | – | – | – | tolerability at 50 mg/kg dose (in words) ([1]; single dose 50 mg/kg, FIG. 15): toxic; IC50 UMRC-3 (UMRC-3; [7]): 28 ng/mL; IC50 L-428 (L428 [2]; [7]): 9 ng/mL; IC50 Caki-1 (Caki-1; [7]): 6 ng/mL; IC50 LP-1 (LP-1; [7]): 209 ng/mL; IC50 786-O (786-O; [7]): 10 ng/mL
5 | AF-Isoleucine-Proline-diaminoethane-propionyl maleimide [AF-Ile-Pro] | >1000 | 16 | 5 | 45 | 9 | 0.1 | 0.7 | 0.6 | 219 ng/mL | 9.8 | –
6 | vc-PABC-MMAF [reference compound] | >1000 | 14 | 7 | 10 | 3 | 0.5 | 3 | 3 | 22 ng/mL | 7 | IC50 HCT-116 (CD70−) (HCT-116 (CD70−); Table 5, ~4 drugs/Ab): >1000 ng/mL; IC50 L428 (L428 [2]; Table 5, h1F6 conjugates): 4 ng/mL; IC50 Caki-1 (Caki-1; [8]): 12 ng/mL; IC50 Caki-2 (Caki-2): 11 ng/mL; IC50 786-O (786-O; [8]): 5 ng/mL
7 | AF-β-alanine-(D)Aspartic Acid-diaminoethane-propionyl maleimide [AF-β-Ala-(D)Asp] | >1000 | 132 | 1096 | 93 | 1585 | 0.5 | 1.6 | 371 | >10,000 ng/mL | 525 | –
8 | AF-Trimethyllysine-Proline-diaminoethane-propionyl-maleimide [AF-Me3Lys-Pro] | >1000 | 30 | 24 | 78 | 11 | 0.09 | 0.8 | 0.6 | 298 ng/mL | 20 | –
9 | AF-Phenylglycine-(D)Lysine-diaminoethane-propionyl maleimide [AF-PhenylGly-(D)Lys] | >1000 | 1096 | 275 | 98 | 44 | 2 | 6 | 21 | >10,000 ng/mL | 339 | –
10 | CC[C@H](C)[C@@H]([C@@H](CC(=O)N1CCC[C@H]1[C@H](OC)[C@@H](C)C(=O)N[C@@H](Cc1ccccc1)C(=O)O)OC)N(C)C(=O)[C@@H](NC(=O)[C@H](C(C)C)N(C)C(=O)CCCCCN1C(=O)C=CC1=O)C(C)C [MC-MMAP, Maleimidocaproyl-monomethylauristatin F, reference compound] ({Hexanoyl(6-maleimido)}-[NMeV]V[Dil][Dolaproine]F-OH) | – | – | – | – | – | – | – | – | – | – | IC50 L428 (L428 [3]; [9]): 1 ng/mL (≈ 0.00108 µM); IC50 ARH-77 (ARH-77): 255 ng/mL (≈ 0.276 µM); IC50 Ramos (Ramos): 7 ng/mL (≈ 0.00757 µM); IC50 SUDHL-4 (SUDHL-4): ~10,000 ng/mL; IC50 MCF-7 (MCF-7): 3 ng/mL (≈ 0.00324 µM); IC50 SKOV-3 (SKOV-3): 2450 ng/mL (≈ 2.65 µM); IC50 L540cy (L540cy; [9]): 7 ng/mL (≈ 0.00757 µM); IC50 Karpas 299 (Karpas 299; [9]): 3 ng/mL (≈ 0.00324 µM); IC50 H3396 (H3396): 42 ng/mL (≈ 0.0454 µM); IC50 RCA (RCA): 7400 ng/mL (≈ 8 µM); IC50 L2987 (L2987): 626 ng/mL (≈ 0.677 µM)
11 | AF-Tyrosine-(D)Aspartic Acid-diaminoethane-propionyl maleimide [AF-Tyr-(D)Asp] | >1000 | 32 | 27 | 72 | 9 | 0.06 | 0.7 | 0.6 | 398 ng/mL | 24 | –
12 | AF-Norvaline-(D)Aspartic Acid-diaminoethane-propionyl maleimide [AF-NorVal-(D)Asp] | >1000 | 25 | 24 | 78 | 12 | 0.09 | 0.6 | 0.5 | 537 ng/mL | 28 | –

Reference: US9463252B2, “Auristatin drug linker conjugates” (priority 2008, dated 2016)
